# Results as given in patent US20260138970A1, “MODULATORS OF THE CALCIUM SIGNALING CASCADE” (FONDAZIONE TELETHON ETS, priority 2022, published 2026).
# Columns and labels:
# [1] = tested on: ENaC; assay: Short-circuit current recordings on human cultured bronchial epithelia, ENaC function; assay type: cell-based; details: apical addition; ARN7149 10 μM, ARN11391 20 μM, ARN4550 20 μM, UTP 10 nM; FIG. 9
# Source text: In a further experimental setting, snapwell supports (cc3801, Corning) carrying differentiated bronchial epithelia generated in vitro were mounted in a vertical chamber resembling an Ussing system with internal fluid circulation (EM-CSYS-8, Physiologic Instruments, San Diego, CA, USA). The apical and basolateral hemichambers were filled with a solution containing (in mM): 126 NaCl, 0.38 KH2PO4, 2.13 K2HPO4, 1 MgSO4, 1 CaCl2), 24 NaHCO3, and 10 glucose. Both sides were continuously bubbled with a gas mixture containing 5% CO2 and 95% air. The temperature of the solution was kept at 37° C. throughout the experiment.
# During recordings, the following molecules (in addition to ARN7149, ARN11391, and ARN4550) were added in the apical solution: elastase (SE2093002, Serva); UTP (U6625, Merck); amiloride (A7410, Merck). Transepithelial voltage was short-circuited with a voltage-clamp (VCC MC8, Physiologic Instruments, San Diego, CA, USA) connected to the apical and basolateral chambers via Ag—AgCl electrodes and agar bridges (2% agar in 1 M KCl). The offset between voltage electrodes and the fluid resistance were cancelled before experiments. The resulting short-circuited current from each channel was recorded on a personal computer with the Acquire & Analize 2.3 software (Physiologic Instruments, San Diego, CA, USA).
# [2] = tested on: PLC; assay: PLC assay in FRT cells expressing PH-PLC-GFP sensor; assay type: cell-based; details: pre-incubation with BAPTA/AM; FIG. 3B
# Description: FRT cells with stable expression of PLC6-PH-GFP, generated in the laboratory of inventors, were cultured up to subconfluent condition in p-Plate96 microplates (Ibidi). Each well of a 96-well microplate was washed 3 times, leaving 125 μl of phosphate-buffered saline (PBS) containing compounds at 10 μM final concentration or vehicle. After 20 min of incubation at 37° C., microplate was moved on the stage of an inverted microscope equipped with GFP excitation/emission filters, 40×oil immersion objective (Olympus, Segrate, Italy), Lambda DG4 illumination system (Sutter Instrument Co., Novato, CA, USA), Prime cmos camera (Photometrics, Tucson, AZ, USA) and MetaMorph imaging acquisition software (Molecular Devices, Sunnyvale, CA, USA). Time-lapse experiments were carried out with 50 ms exposure time, 20 frame/s rate, and 2.4 min total duration. After 20 s and 90 s, UTP 0.25 μM and 100 μM (final concentrations) was respectively added. Analysis was performed with MetaMorph software, by quantifying GFP fluorescence cytoplasmic accumulation in manually selected single cell regions of interest (ROI). After background subtraction, fluorescence recordings were normalized for the initial value.
# [3] = target: T1, P2RY2 (Rattus norvegicus, UniProt P41232); assay: Fluo-4 Ca2+ assay in null FRT cells with P2RY2 antagonist; assay type: cell-based; details: AR-C118925XX 10 μM; UTP 0.25 μM; FIG. 5B
# T1 construct: endogenous in cells; host or cells: null (parental) FRT cells
# T1 sequence (P41232 whole entry): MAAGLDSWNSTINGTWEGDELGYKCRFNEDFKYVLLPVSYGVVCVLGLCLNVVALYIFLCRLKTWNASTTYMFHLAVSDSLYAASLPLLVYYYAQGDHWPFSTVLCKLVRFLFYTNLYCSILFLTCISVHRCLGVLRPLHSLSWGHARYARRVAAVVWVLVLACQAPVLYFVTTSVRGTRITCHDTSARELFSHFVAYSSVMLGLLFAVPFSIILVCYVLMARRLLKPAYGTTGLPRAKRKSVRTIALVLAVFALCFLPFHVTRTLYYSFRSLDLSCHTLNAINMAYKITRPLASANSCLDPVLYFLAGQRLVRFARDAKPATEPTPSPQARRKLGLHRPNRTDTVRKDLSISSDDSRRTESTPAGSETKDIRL
# Description: Experiments were performed using the microplate reader described for the HS-YFP assay. FRT and HEK293 cells were cultured until confluence in 96-well microplates (3603, Corning). Cells were washed 2 times with PBS (150 μl/wash) and then loaded for 1 h at 37° C. with 5 μM Fluo-4/AM (Thermo Fisher Scientific; catalog number: F23917) in PBS containing 10 mM glucose, 0.5 mM sulfinpyrazone, and 1% fetal bovine serum. After loading, cells were washed 2 times with PBS-glucose-sulfinpyrazone (150 μl/wash) and incubated for 20 min at 37° C. with 60 μl of PBS plus 10 mM glucose and 0.5 mM sulfinpyrazone containing compounds of interest at 10 μM final concentration or vehicle. Each well was assayed individually. Fluo-4 fluorescence (500 nm excitation, 535 nm emission) was detected every 200 ms for 16-40 s. Two seconds after the start of fluorescence recording, the reader automatically injected 165 μl of a modified PBS containing 136 mM KCl instead of NaCl. This solution also contained 10 mM glucose, 0.5 mM sulfinpyrazone, and UTP or SLIGR-NH2 (CAS #171436-38-7) at a final concentration that depended on the specific cell type. […] The Fluo-4 fluorescence increase was quantified using a procedure compiled in Microsoft Excel after background subtraction and normalization for the initial value measured before UTP addition.
# [4] = tested on: FRT cells; assay: Fluo-4 Ca2+ mobilization assay in parental (null) FRT cells; assay type: cell-based, rat; details: for potentiation of the Ca2+ increase elicited by UTP, multiple concentrations: UTP 0.25 μM, compounds 1-80 μM, vs vehicle (DMSO), FIG. 8
# Description: Experiments were performed using the microplate reader described for the HS-YFP assay. FRT and HEK293 cells were cultured until confluence in 96-well microplates (3603, Corning). Cells were washed 2 times with PBS (150 μl/wash) and then loaded for 1 h at 37° C. with 5 μM Fluo-4/AM (Thermo Fisher Scientific; catalog number: F23917) in PBS containing 10 mM glucose, 0.5 mM sulfinpyrazone, and 1% fetal bovine serum. […] Each well was assayed individually. Fluo-4 fluorescence (500 nm excitation, 535 nm emission) was detected every 200 ms for 16-40 s. Two seconds after the start of fluorescence recording, the reader automatically injected 165 μl of a modified PBS containing 136 mM KCl instead of NaCl. This solution also contained 10 mM glucose, 0.5 mM sulfinpyrazone, and UTP or SLIGR-NH2 (CAS #171436-38-7) at a final concentration that depended on the specific cell type. For UTP we used: 0.25 μM for FRT; 1 μM for HEKR2; 5 μM for HEK3XKO, HEKR1, and HEKR3. For SLIGR-NH2 we used: 10 μM for HEKR1; 4 μM for HEKR2. These concentrations were chosen to elicit ˜20% of maximal effect based on UTP and SLIGR-NH2 dose-response relationships. The lower agonist concentrations used for HEKR2 cells, compared to HEKR1 cells, are consistent with the higher affinity of ITPR2 for IP3 (16). The Fluo-4 fluorescence increase was quantified using a procedure compiled in Microsoft Excel after background subtraction and normalization for the initial value measured before UTP addition.
# In a further experimental setting, experiments were performed using as above the FLUOstar Omega (BMG Labtech, Offenburg, Germany) microplate reader equipped with syringe pumps and optical excitation/emission filters optimized for yellow fluorescent protein (YFP) fluorescence (ET500/20× and ET535/30m, respectively; Chroma Technology Corporation). FRT and Chem-1 cells were cultured until confluence in 96-well microplates (cc3603, Corning). Cells were washed 2 times with PBS (150 μl/wash) and then loaded for 1 h at 37° C. with 5 μM Fluo-4/AM (Thermo Fisher Scientific; catalog number: F23917) in PBS containing 10 mM glucose, 0.5 mM sulfinpyrazone, and 1% fetal bovine serum. […] Each well was assayed individually. Fluo-4 fluorescence (500 nm excitation, 535 nm emission) was detected every 200 ms for 16-40 s. Two seconds after the start of fluorescence recording, the reader automatically injected 165 μl of a modified PBS containing 136 mM KCl instead of NaCl. This solution also contained, in addition to 10 mM glucose and 0.5 mM sulfinpyrazone, the following agonists: UTP (U6625, Merck) or CCK8s (23371, Cayman Chemical). The Fluo-4 fluorescence increase was quantified using a procedure compiled in Microsoft Excel after background subtraction and normalization for the initial value measured before UTP or CCK8s addition.
# [5] = tested on: TMEM16A; assay: HS-YFP assay in ITPR-defective HEK293 cells transiently transfected with TMEM16A; assay type: cell-based; details: ionomycin 1 μM, FIG. 2D
smiles,measurement,setting,value
"O=c1ccn([C@@H]2O[C@H](COP(=O)(O)OP(=O)(O)OP(=O)(O)O)[C@@H](O)[C@H]2O)c(=O)[nH]1 [UTP, reference compound]","ENaC current decay (ENaC inhibition), short-circuit current",[1],ENaC current decay
"CC(=O)OCOC(=O)CN(CC(=O)OCOC(C)=O)c1ccccc1OCCOc1ccccc1N(CC(=O)OCOC(C)=O)CC(=O)OCOC(C)=O [BAPTA/AM, 1,2-Bis(2-aminophenoxy)ethane-N,N,N′,N′-tetraacetic acid tetrakis(acetoxymethyl ester), reference compound]",PLC activity with/without compounds after Ca2+ chelation,[2],markedly inhibited
Cc1ccc2c(c1)C=Cc1cc(C)ccc1C2c1cn(Cc2ccc(C(=O)Nc3nn[nH]n3)o2)c(=O)[nH]c1=S [AR-C118925XX],effect of UTP alone and of UTP plus potentiators on Ca2+ mobilization,[3],completely blocked
"O=C(Nc1ccccc1OCC1CCCCO1)C1CCCN(c2ccccn2)C1 (stereo not shown) [compound 6, 1-(2-Pyridyl)-N-[2-(tetrahydropyran-2-ylmethoxy)phenyl]piperidine-3-carboxamide]","potentiation of the Ca2+ increase elicited by UTP, multiple concentrations",[4],dose-dependent potentiation
"C[C@H](CCC(=O)O)C[C@H](C)C[C@H](C)C(=O)/C=C(\O)[C@H](C)C[C@H](C)C/C=C/[C@@H](C)[C@@H](O)[C@@H](C)[C@@H](O)C[C@@H]1CC[C@@](C)([C@H]2CC[C@@](C)([C@@H](C)O)O2)O1 [ionomycin, reference compound]",activation of TMEM16A when Ca2+ directly increased (HS-YFP),[5],large effect
"O=C(Nc1ccccc1OCC1CCCCO1)C1CC2C=CC1C2 (stereo not shown) [compound 7, N-[2-(Tetrahydropyran-2-ylmethoxy)phenyl]bicyclo[2.2.1]hept-5-ene-2-carboxamide]","potentiation of the Ca2+ increase elicited by UTP, multiple concentrations",[4],dose-dependent potentiation
"COCCN(C(=O)c1cc(OC)c(OC)c(OC)c1)c1nc(-c2ccccc2)cs1 [Eact, reference compound]",direct Ca2+ mobilization in the absence of UTP (Fluo-4),"[4]; acute addition, compounds 10 μM, Eact 5 μM, FIG. 2B",elicits Ca^2+ influx
